Laboratory results taken from US12403121B2, “Anticancer rocaglamide derivatives” (priority 2018, dated 2025).
Read-outs that look alike come from different tables or passages of the source.

What was measured:
[1] = system: Sch10545 Nf2−/− schwannoma cells; assay: 3-day resazurin cell proliferation assay, Sch10545 schwannoma cells; format: cell-based, mouse; settings: 3-day resazurin proliferation assay, average IC50, read-out: IC50 (nM) Sch10545 Nf2−/− schwannoma cells
Method: (§1) The human MPNST cell lines, ST8814, STS26T, S462, T265, and luciferase-expressing ST8814-Luc, the human NF2-deficient meningioma cell line Ben-Men-1, the NJ2 mouse schwannoma cell line Sch10545, and primary human Schwann cells were propagated as previously described. Oblinger et al., Neuro-Oncol., 18:1265-1277 (2016). The Ewing sarcoma cell line A673 and the osteosarcoma cell lines, 143B and MG-63, were grown in Dulbecco's Modified Eagle's (DME) medium (Millipore-Sigma) supplemented with 10% fetal bovine serum (FBS; Atlanta Biological). The silvestrol-sensitive 697 and silvestrol-resistant 697-R pre-B acute lymphoblastic leukemia cells (Gupta et al., AAPS J., 13:357-364 (2011)), the Ewing sarcoma cell line TC32, the osteosarcoma cell lines, Saos2 and OS17, and the rhabdomyosarcoma cell line RD were cultivated in RPMI 1640 medium (Millipore-Sigma) plus 10% FBS.
(§2) Actively-growing cells were seeded in 96-well plates (Sarstedt) at 2,000 cells/well for Ben-Men-1 and RD cells, 30,000 cells/well for 697 and 697-R cells, and 4,000 cells/well for all other cell lines. The following day, cells were treated with various concentrations of each compound or and 0.05% of DMSO as the control for six days for MG-63 cells or three days for all remaining cell lines. Cell proliferation was assessed using resazurin assays and the IC50 value calculated. Cell cycle analysis was performed accordingly. Burns et al., Cancer Res., 73:792-803 (2013).
(§3) To search for compounds with better drug-like properties, the inventors conducted a side-by-side comparison of ten rocaglates lacking the dioxanyl ring with silvestrol for growth-inhibitory activity in a panel of MPNST, schwannoma, and meningioma cell lines, which they had previously shown to be sensitive to the antiproliferative action of silvestrol. […] The average IC50 value of each rocaglate was determined by 3-day resazurin proliferation assays. […] Further structure and activity comparison discerned some positions on the cyclopenta[b]benzofuran scaffold that affected the antiproliferative activity of rocaglates.

[2] = system: ST8814 NF1−/− MPNST cells; assay: 3-day resazurin cell proliferation assay, ST8814 MPNST cells; format: cell-based, human; settings: 3-day resazurin proliferation assay, average IC50, read-out: IC50 (nM) ST8814 NF1−/− MPNST cells
Method: as §1, §2, §3

[3] = system: Ben-Men-1 NF2−/− meningioma cells; assay: 3-day resazurin cell proliferation assay, Ben-Men-1 meningioma cells; format: cell-based, human; settings: 3-day resazurin proliferation assay, average IC50, read-out: IC50 (nM) Ben-Men-1 NF2−/− meningioma cells
Method: as §1, §2, §3

[4] = system: STS26T NF1+/+ MPNST cells; assay: 3-day resazurin cell proliferation assay, STS26T MPNST cells; format: cell-based, human; settings: 3-day resazurin proliferation assay, average IC50, read-out: IC50 (nM) STS26T NF1+/+ MPNST cells
Method: as §1, §2, §3

Work on COC(=O)C1C(O)C2(OC)c3c(OC)cc(OC)cc3OC2(c2ccc(OC)cc2)C1c1ccccc1 (centres unmarked) [Methyl 8b-O-methylrocaglate] yielded an IC50 [1] of 9300 nM, an IC50 [2] of over 20000 nM and an IC50 [3] of over 10000 nM. For the same compound, the IC50 [4] was at least 10000 nM.

COc1ccc([C@@]23Oc4cc(OC)cc(OC)c4[C@]2(OC)[C@H](O)C[C@H]3c2ccccc2)cc1 [8b-O-methylrocaglaol] was tested, and the IC50 [1] was over 20000 nM, the IC50 [2] was over 20000 nM and the IC50 [3] was over 20000 nM. The IC50 [4] was over 20000 nM.

COc1cc(OC)c2c(c1)OC1(c3ccc4c(c3)OCO4)C(c3ccccc3)CC(O)C21O (centres unmarked) [4′-demethoxy-3′,4′-methylenedioxyrocaglaol] gave an IC50 [1] of 65 nM, an IC50 [2] of 120 nM and an IC50 [3] of 85 nM. It also gave an IC50 [4] of 55 nM.

For COc1cc(OC)c2c(c1)OC1(c3ccc4c(c3)OCO4)C(c3ccccc3)CC(O)C21OC (centres unmarked) [8b-O-methyl-4′-demethoxy-3′,4′-methylenedioxyrocaglaol], the IC50 [1] was over 2500 nM, the IC50 [2] was 10000 nM and the IC50 [3] was over 2500 nM. The IC50 [4] was 5000 nM.

Work on COC(=O)C1C(O)C2(O)c3c(OC)cc(OC)cc3OC2(c2ccc3c(c2)OCO3)C1c1ccccc1 (centres unmarked) [Methyl 4′-demethoxy-3′,4′-methylenedioxyrocaglate] yielded an IC50 [1] of 60 nM, an IC50 [2] of 70 nM and an IC50 [3] of 80 nM. For the same compound, the IC50 [4] was 35 nM.

COc1ccc([C@@]23Oc4cc(OC)cc(OC)c4[C@]2(O)[C@H](O)C[C@H]3c2ccccc2)cc1 [Rocaglaol] was tested, and the IC50 ([1]; Mus musculus, 72 h) was 60 nM, the IC50 ([2]; Homo sapiens, ST88-14, 72 h) was 90 nM and the IC50 ([3]; Homo sapiens, 72 h) was 100 nM. The IC50 ([4]; Homo sapiens, STS-26T, 72 h) was 40 nM.

For COC(=O)[C@H]1[C@@H](O)[C@@]2(O)c3c(OC)cc(OC)cc3O[C@@]2(c2ccc(OC)cc2)[C@@H]1c1ccccc1 [Methyl rocaglate], the IC50 [1] was 50 nM, the IC50 [2] was 35 nM and the IC50 [3] was 55 nM. It also gave an IC50 [4] of 25 nM.

In the case of COC(=O)C1C(O)C2(OC)c3c(OC)cc(OC)cc3OC2(c2ccc3c(c2)OCO3)C1c1ccccc1 (centres unmarked) [Methyl 8b-O-methyl-4′-demethoxy-3′,4′-methylenedioxyrocaglate], the IC50 [1] was 1900 nM, the IC50 [2] was 2000 nM and the IC50 [3] was 3800 nM. The IC50 [4] was 1300 nM.
